In patent US20050130252A1, “Stabilized susceptibility tests of aerobic pathogens” (Wyeth Holdings Corporation, priority 2003, published 2005):
Converted amounts (≈) assume the structure as drawn. Read-outs that look alike come from different tables or passages of the source.

Assays:
[1] = tested on: S. aureus ATCC 25923; assay: Broth microdilution MIC; format: cell-based, Staphylococcus aureus; conditions: Staphylococcus aureus, ATCC25923, read-out: Minimal Inhibitory Concentration, S. aureus ATCC 25923
Description: (§1) The process for preparing susceptibility test medium are the following steps: • a. Preparing Mueller Hinton Broth II medium by adding 22 grams powdered media to 1.0 liter distilled water; • b. Autoclaving (121° C., 15 psi, 15 minutes) and cooling the medium; • c. Adding Oxyrase® up to about 10% final volume and keeping at 35-37° C. in an incubator for 30 minutes; • d. Adding about 50 μL to each well of a 96 well microtiter plate; • e. Weighing drug and adding broth to drug to bring up to about (standard 128 μg/ml); • f. Adding 50 μL of the drug to the first column of the titer plate; • g. Diluting by two-fold serial diluting across or down the plate. • h. Preparing a Prompt™ inoculum at 10^8 CFU/ml; • i. Diluting inoculum 1:100 in the broth at […] in 9.9 ml (1:100) is 10^6 colony forming units (CFU) forming the adjusted inoculum; • j. Adding 50 μL of the adjusted inoculum to the wells of the microtiter plate; • k. Incubating the plates at 35-37° C. for 18-22 hours; and • l. Reading, with the unaided eye, the MIC.
(§2) The in vitro activities of tigecycline and control antibiotics were determined by the broth microdilution method as recommended by the NCCLS. (National Committee for Clinical Laboratory Standards, 2003. Methods for Dilution Antimicrobial Susceptibility Tests for Bacteria That Grow Aerobically; Approved Standards: M7-A6, Sixth ed, vol. 23., National Committee for Clinical Laboratory Standards Wayne, Pa.) was used for the standard procedures. MBH with 5% lysed horse blood was used for testing S. pneumoniae and Haemophilus Test Medium was used for testing H. influenzae. Oxyrase® (Oxyrase Inc, Mansfield, Ohio) was used according to the manufacturer's instructions by adding 1 ml of Oxyrase® to 50 ml of media. Media age studies were performed by preparing MHB in multiple flasks, then storing the media under various conditions. MICs were usually performed in duplicate on each day of testing. Storage under anaerobic conditions was conducted in an anaerobic chamber (MACS MG 1000, Don Whitley Scientific LTD). The pH of the media was determined by pH meter (Corning 430). A comparison of the in vitro activity of tigecycline by agar and broth dilution methodolgies with and without Oxyrase® against clinical isolates is shown in Table 1.

[2] = tested on: S. aureus ATCC 29213; assay: Broth microdilution MIC; format: cell-based, Staphylococcus aureus; conditions: for MIC: Staphylococcus aureus
Description: as §1, §2

[3] = Table 8, S. aureus ATCC 29213, Mueller Hinton Broth + Oxyrase, n = 240

Structure (SMILES): CN(C)c1cc(NC(=O)CNC(C)(C)C)c(O)c2c1C[C@H]1C[C@H]3[C@H](N(C)C)C(O)=C(C(N)=O)C(=O)[C@@]3(O)C(O)=C1C2=O [Tigecycline, tigecycline]
- MIC ([1]; 2% Oxyrase): 0.06 µg/mL (≈ 0.102 µM)
- MIC ([1]; MHB II + 0.05% Sodium Pyruvate): 0.25 µg/mL
- MIC ([1]; No Oxyrase): 0.25 µg/mL (≈ 0.427 µM)
- MIC ([2]; ATCC29213, 0 h, S. aureus ATCC 29213, Day 0, Pre-prepared media, room temperature, N = 6): 0.25 µg/mL (≈ 0.427 µM)
- MIC ([2]; ATCC29213, 0 h, S. aureus ATCC 29213, Day 0, media Fresh from Powder 2° C., N = 6): 0.12 µg/mL (≈ 0.205 µM)
- MIC ([2]; ATCC29213, 0 h, S. aureus ATCC 29213, Day 0, media Fresh from Powder, room temperature, N = 6): 0.06 to 0.12 µg/mL (≈ 0.102 to 0.205 µM)
- MIC ([2]; ATCC29213, 24 h, S. aureus ATCC 29213, Day 1, Pre-prepared media, room temperature, N = 6): 0.25 µg/mL (≈ 0.427 µM)
- MIC ([2]; ATCC29213, 24 h, S. aureus ATCC 29213, Day 1, media Fresh from Powder 2° C., N = 6): 0.12 µg/mL (≈ 0.205 µM)
- MIC ([2]; ATCC29213, 24 h, S. aureus ATCC 29213, Day 1, media Fresh from Powder, room temperature, N = 6): 0.12 µg/mL (≈ 0.205 µM)
- MIC ([2]; ATCC29213, 168 h, S. aureus ATCC 29213, Day 7, Pre-prepared media, room temperature, N = 6): 0.25 µg/mL (≈ 0.427 µM)
- MIC ([2]; ATCC29213, 168 h, S. aureus ATCC 29213, Day 7, media Fresh from Powder 2° C., N = 6): 0.12 µg/mL (≈ 0.205 µM)
- MIC ([2]; ATCC29213, 168 h, S. aureus ATCC 29213, Day 7, media Fresh from Powder, room temperature, N = 6): 0.25 µg/mL (≈ 0.427 µM)
- MIC ([2]; ATCC29213, 336 h, S. aureus ATCC 29213, Day 14, Pre-prepared media, room temperature, N = 6): 0.25 to 0.5 µg/mL (≈ 0.427 to 0.854 µM)
- MIC ([2]; ATCC29213, 336 h, S. aureus ATCC 29213, Day 14, media Fresh from Powder 2° C., N = 6): 0.25 to 0.5 µg/mL (≈ 0.427 to 0.854 µM)
- MIC ([2]; ATCC29213, 336 h, S. aureus ATCC 29213, Day 14, media Fresh from Powder, room temperature, N = 6): 0.25 to 0.5 µg/mL (≈ 0.427 to 0.854 µM)
- MIC ([2]; ATCC29213, 336 h, read-out: Minimal Inhibitory Concentration, S. aureus ATCC 29213, media Aged Aerobic (2 weeks at RT under room air), N = 4): 0.25 to 0.5 µg/mL (≈ 0.427 to 0.854 µM)
- MIC ([2]; ATCC29213, 504 h, S. aureus ATCC 29213, Day 21, Pre-prepared media, room temperature, N = 6): 0.5 µg/mL (≈ 0.854 µM)
- MIC ([2]; ATCC29213, 504 h, S. aureus ATCC 29213, Day 21, media Fresh from Powder 2° C., N = 6): 0.25 to 0.5 µg/mL (≈ 0.427 to 0.854 µM)
- MIC ([2]; ATCC29213, 504 h, S. aureus ATCC 29213, Day 21, media Fresh from Powder, room temperature, N = 6): 0.25 µg/mL (≈ 0.427 µM)
- MIC ([2]; ATCC29213, 672 h, S. aureus ATCC 29213, Day 28, Pre-prepared media, room temperature, N = 6): 0.25 to 0.5 µg/mL (≈ 0.427 to 0.854 µM)
- MIC ([2]; ATCC29213, 672 h, S. aureus ATCC 29213, Day 28, media Fresh from Powder 2° C., N = 6): 0.25 µg/mL (≈ 0.427 µM)
- MIC ([2]; ATCC29213, 672 h, S. aureus ATCC 29213, Day 28, media Fresh from Powder, room temperature, N = 6): 0.25 µg/mL (≈ 0.427 µM)
- MIC ([2]; ATCC29213, read-out: Minimal Inhibitory Concentration (modal value), S. aureus ATCC 29213, Aged Media + Oxyrase, N = 8): 0.25 µg/mL
- MIC ([2]; ATCC29213, read-out: Minimal Inhibitory Concentration (modal value), S. aureus ATCC 29213, Aged media, N = 8): 0.5 µg/mL (≈ 0.854 µM)
- MIC ([2]; ATCC29213, read-out: Minimal Inhibitory Concentration (modal value), S. aureus ATCC 29213, Fresh Media + Oxyrase, N = 8): 0.12 µg/mL
- MIC ([2]; ATCC29213, read-out: Minimal Inhibitory Concentration (modal value), S. aureus ATCC 29213, Freshly Prepared Media, N = 8): 0.25 µg/mL (≈ 0.427 µM)
- MIC ([2]; ATCC29213, read-out: Minimal Inhibitory Concentration, S. aureus ATCC 29213, Aged Media + Oxyrase, N = 8): 0.12 to 0.25 µg/mL
- MIC ([2]; ATCC29213, read-out: Minimal Inhibitory Concentration, S. aureus ATCC 29213, Aged media, N = 8): 0.5 µg/mL (≈ 0.854 µM)
- MIC ([2]; ATCC29213, read-out: Minimal Inhibitory Concentration, S. aureus ATCC 29213, Commercially Prepared media, N = 4): 0.25 µg/mL (≈ 0.427 µM)
- MIC ([2]; ATCC29213, read-out: Minimal Inhibitory Concentration, S. aureus ATCC 29213, Fresh Media + Oxyrase, N = 8): 0.12 to 0.25 µg/mL
- MIC ([2]; ATCC29213, read-out: Minimal Inhibitory Concentration, S. aureus ATCC 29213, Freshly Prepared Media, N = 8): 0.25 µg/mL (≈ 0.427 µM)
- MIC ([2]; ATCC29213, read-out: Minimal Inhibitory Concentration, S. aureus ATCC 29213, Freshly Prepared media, N = 4): 0.06 to 0.12 µg/mL (≈ 0.102 to 0.205 µM)
- MIC ([2]; ATCC29213, read-out: Minimal Inhibitory Concentration, S. aureus ATCC 29213, MHB II + 0.05% Catalase): 0.5 µg/mL
- MIC ([2]; ATCC29213, read-out: Minimal Inhibitory Concentration, S. aureus ATCC 29213, MHB II + 0.05% L-ascorbic Acid): 2 µg/mL
- MIC ([2]; ATCC29213, read-out: Minimal Inhibitory Concentration, S. aureus ATCC 29213, MHB II + 0.05% L-cysteine): 0.25 µg/mL
- MIC ([2]; ATCC29213, read-out: Minimal Inhibitory Concentration, S. aureus ATCC 29213, MHB II + 0.05% Thioglycolate): 0.25 µg/mL
- MIC ([2]; ATCC29213, read-out: Minimal Inhibitory Concentration, S. aureus ATCC 29213, MHB II + 2% Oxyrase): 0.12 µg/mL
- MIC ([2]; ATCC29213, read-out: Minimal Inhibitory Concentration, S. aureus ATCC 29213, Mueller Hinton Broth II (Fresh)): 0.25 µg/mL (≈ 0.427 µM)
- MIC ([2]; ATCC29213, read-out: Minimal Inhibitory Concentration, S. aureus ATCC 29213, Mueller Hinton Broth II (MHB II)): 0.25 to 0.5 µg/mL (≈ 0.427 to 0.854 µM)
- MIC ([2]; ATCC29213, read-out: Minimal Inhibitory Concentration, S. aureus ATCC 29213, media Aged Anaerobic, N = 4): 0.06 to 0.12 µg/mL (≈ 0.102 to 0.205 µM)
- Number of Occurrences of MIC 0.06 ug/ml [2, 3]: 14
- Number of Occurrences of MIC 0.12 ug/ml [2, 3]: 203
